Data reported in US9833497B2, “Human originated EGF domain proteins and use of the same” (CHENGDU SOURCEBIO LIMITED-LIABILITY COMPANY, priority 2013, dated 2017).

Key:
Format in all cases: cell-based
[1] = test system: Serratia marcescens; assay: MIC against Gram-negative bacteria: Serratia marcescens; details: Serratia marcescens; 96-well plate, 5×10^5 CFU/mL, 37° C., 10 h
How it was run: (§1)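 Purified recombinant human EGF domain proteins are tested by broth dilution in LB against a 5×10^5 CFU/mL inoculum, with two-fold serial dilutions run in triplicate. Plates are incubated at 37° C with shaking, and the MIC is read as the lowest protein concentration without growth.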

[2] = test system: Citrobacter diversus; assay: MIC against Gram-negative bacteria: Citrobacter diversus; details: Citrobacter diversus; 96-well plate, 5×10^5 CFU/mL, 37° C., 10 h
How it was run: as §1

[3] = test system: E. coli BL21; assay: MIC against Gram-negative bacteria: E. coli BL21; details: E. coli BL21; 96-well plate, 5×10^5 CFU/mL, 37° C., 10 h
How it was run: as §1

[4] = test system: Aeromonas hydrophila; assay: MIC against Gram-negative bacteria: Aeromonas hydrophila; details: Aeromonas hydrophila; 96-well plate, 5×10^5 CFU/mL, 37° C., 10 h
How it was run: as §1

[5] = test system: Pseudomonas aeruginosa; assay: MIC against Gram-negative bacteria: Pseudomonas aeruginosa; details: Pseudomonas aeruginosa; 96-well plate, 5×10^5 CFU/mL, 37° C., 10 h
How it was run: as §1

[6] = test system: Proteus mirabilis; assay: MIC against Gram-negative bacteria: Proteus mirabilis; details: Proteus mirabilis; 96-well plate, 5×10^5 CFU/mL, 37° C., 10 h
How it was run: as §1

[7] = test system: Klebsiella pneumonia; assay: MIC against Gram-negative bacteria: Klebsiella pneumonia; details: Klebsiella pneumonia; 96-well plate, 5×10^5 CFU/mL, 37° C., 10 h
How it was run: as §1

[8] = test system: Moraxella catarrhalis; assay: MIC against Gram-negative bacteria: Moraxella catarrhalis; details: Moraxella catarrhalis; 96-well plate, 5×10^5 CFU/mL, 37° C., 10 h
How it was run: as §1

[9] = test system: Proteus vulgaris; assay: MIC against Gram-negative bacteria: Proteus vulgaris; details: Proteus vulgaris; 96-well plate, 5×10^5 CFU/mL, 37° C., 10 h
How it was run: as §1

[10] = test system: E. coli DH5α; assay: Antibacterial activity: MIC and growth curve against E. coli DH5α in 96-well plate; details: minimal inhibitory concentration against E. coli DH5α; 96-well plate, 5×10^5 CFU/mL, 37° C., judged after 8 h
How it was run: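 MIC taken as lowest protein level with no bacterial growth, tracked by A600 every 30 min during 37 °C, 175 rpm culture. Two-fold protein series 50-12.5 μg/mL final, triplicate wells, against 5×10^5 CFU/mL of LB-washed mid-log cells.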

[11] = test system: Enterobacter cloacae; assay: MIC against Gram-negative bacteria: Enterobacter cloacae; details: Enterobacter cloacae; 96-well plate, 5×10^5 CFU/mL, 37° C., 10 h
How it was run: as §1

PRT71 (VDACHLNPCENMGACVRSPGSPQGYVCECGPSHYGPYCE; listed as Homo sapiens)
50 µg/mL: MIC (μg/mL) M. catarrhalis [8] | MIC [10] | MIC (μg/mL) E. cloacae [11]
12.5 µg/mL: MIC (μg/mL) S. marcescens [1] | MIC (μg/mL) C. diversus [2] | MIC (μg/mL) P. aeruginosa [5] | MIC (μg/mL) P. mirabilis [6] | MIC (μg/mL) P. vulgaris [9]
25 µg/mL: MIC (μg/mL) E. coli BL21 [3] | MIC (μg/mL) A. hydrophila [4] | MIC (μg/mL) K. pneumonia [7]

PRT72 (NKLDLPCPRGWWGNPVCGPCHCAVSKGFDPDCN; listed as Homo sapiens)
100 µg/mL: MIC (μg/mL) S. marcescens [1]
12.5 µg/mL: MIC (μg/mL) C. diversus [2] | MIC (μg/mL) E. coli BL21 [3] | MIC (μg/mL) A. hydrophila [4] | MIC (μg/mL) P. mirabilis [6] | MIC (μg/mL) K. pneumonia [7] | MIC (μg/mL) M. catarrhalis [8] | MIC [10]
25 µg/mL: MIC (μg/mL) P. aeruginosa [5] | MIC (μg/mL) P. vulgaris [9] | MIC (μg/mL) E. cloacae [11]

PRT73 (TNGQCQCKENYYKLLAQDTCLPCDCFPHGSHSRTCD; listed as Homo sapiens)
25 µg/mL: MIC (μg/mL) P. aeruginosa [5] | MIC [10] | MIC (μg/mL) E. cloacae [11]
12.5 µg/mL: MIC (μg/mL) S. marcescens [1] | MIC (μg/mL) C. diversus [2] | MIC (μg/mL) P. mirabilis [6]
50 µg/mL: MIC (μg/mL) E. coli BL21 [3] | MIC (μg/mL) A. hydrophila [4] | MIC (μg/mL) M. catarrhalis [8] | MIC (μg/mL) P. vulgaris [9]
100 µg/mL: MIC (μg/mL) K. pneumonia [7]

PRT74 (CDCFPHGSHSRTCDMATGQCACKPGVIGRQCNRCDNPFAEVTTLGCEV; listed as Homo sapiens)
12.5 µg/mL: MIC (μg/mL) C. diversus [2] | MIC (μg/mL) E. coli BL21 [3] | MIC (μg/mL) A. hydrophila [4] | MIC (μg/mL) P. mirabilis [6] | MIC (μg/mL) M. catarrhalis [8] | MIC (μg/mL) P. vulgaris [9]
25 µg/mL: MIC (μg/mL) S. marcescens [1] | MIC (μg/mL) P. aeruginosa [5] | MIC (μg/mL) E. cloacae [11]
50 µg/mL: MIC (μg/mL) K. pneumonia [7] | MIC [10]

PRT75 (DDNICLREPCENYMRCVSVLRFDSSAPFIASSSVLFRPIHPVGGLRCRCPPGFTGDYCE; listed as Homo sapiens)
25 µg/mL: MIC (μg/mL) E. coli BL21 [3] | MIC (μg/mL) K. pneumonia [7]
50 µg/mL: MIC [10] | MIC (μg/mL) E. cloacae [11]
12.5 µg/mL: MIC (μg/mL) S. marcescens [1] | MIC (μg/mL) C. diversus [2] | MIC (μg/mL) A. hydrophila [4] | MIC (μg/mL) P. aeruginosa [5] | MIC (μg/mL) P. mirabilis [6] | MIC (μg/mL) M. catarrhalis [8] | MIC (μg/mL) P. vulgaris [9]

PRT76 (EVDLCYSRPCGPHGRCRSREGGYTCLCRDGYTGEHCE; listed as Homo sapiens)
25 µg/mL: MIC (μg/mL) C. diversus [2] | MIC (μg/mL) P. aeruginosa [5] | MIC [10] | MIC (μg/mL) E. cloacae [11]
50 µg/mL: MIC (μg/mL) S. marcescens [1]
12.5 µg/mL: MIC (μg/mL) E. coli BL21 [3] | MIC (μg/mL) A. hydrophila [4] | MIC (μg/mL) P. mirabilis [6] | MIC (μg/mL) K. pneumonia [7] | MIC (μg/mL) P. vulgaris [9]
100 µg/mL: MIC (μg/mL) M. catarrhalis [8]

PRT77 (RSGRCTPGVCKNGGTCVNLLVGGFKCDCPSGDFEKPYCQ; listed as Homo sapiens)
50 µg/mL: MIC (μg/mL) S. marcescens [1] | MIC (μg/mL) C. diversus [2] | MIC (μg/mL) P. mirabilis [6] | MIC (μg/mL) K. pneumonia [7] | MIC (μg/mL) P. vulgaris [9]
12.5 µg/mL: MIC (μg/mL) E. coli BL21 [3] | MIC (μg/mL) A. hydrophila [4] | MIC (μg/mL) M. catarrhalis [8]
25 µg/mL: MIC (μg/mL) P. aeruginosa [5] | MIC [10] | MIC (μg/mL) E. cloacae [11]

PRT78 (KKNVCDSNTCHNGGTCVNQWDAFSCECPLGFGGKSCA; listed as Homo sapiens)
25 µg/mL: MIC (μg/mL) E. coli BL21 [3] | MIC (μg/mL) A. hydrophila [4] | MIC (μg/mL) K. pneumonia [7]
12.5 µg/mL: MIC (μg/mL) S. marcescens [1]
50 µg/mL: MIC (μg/mL) C. diversus [2] | MIC (μg/mL) P. aeruginosa [5] | MIC (μg/mL) P. mirabilis [6] | MIC (μg/mL) M. catarrhalis [8] | MIC (μg/mL) P. vulgaris [9] | MIC [10] | MIC (μg/mL) E. cloacae [11]

PRT79 (LPDPCDSNPCPANSYCSNDWDSYSCSCDPGYYGDNC; listed as Homo sapiens)
50 µg/mL: MIC (μg/mL) S. marcescens [1] | MIC (μg/mL) P. mirabilis [6] | MIC [10]
12.5 µg/mL: MIC (μg/mL) C. diversus [2] | MIC (μg/mL) P. aeruginosa [5] | MIC (μg/mL) M. catarrhalis [8] | MIC (μg/mL) P. vulgaris [9] | MIC (μg/mL) E. cloacae [11]
25 µg/mL: MIC (μg/mL) E. coli BL21 [3] | MIC (μg/mL) A. hydrophila [4] | MIC (μg/mL) K. pneumonia [7]

PRT80 (TNVCDLNPCEHQSVCTRKPSAPHGYTCECPPNYLGPYCE; listed as Homo sapiens)
50 µg/mL: MIC (μg/mL) E. coli BL21 [3]
25 µg/mL: MIC (μg/mL) A. hydrophila [4] | MIC (μg/mL) K. pneumonia [7] | MIC (μg/mL) M. catarrhalis [8]
12.5 µg/mL: MIC (μg/mL) S. marcescens [1] | MIC (μg/mL) C. diversus [2] | MIC (μg/mL) P. aeruginosa [5] | MIC (μg/mL) P. mirabilis [6] | MIC (μg/mL) P. vulgaris [9] | MIC [10] | MIC (μg/mL) E. cloacae [11]

PRT81 (TCGPCNCDVSKGFDPDCNKTSGECHCKENHYRPPGSPTCL; listed as Homo sapiens)
12.5 µg/mL: MIC (μg/mL) C. diversus [2] | MIC (μg/mL) E. coli BL21 [3] | MIC (μg/mL) P. aeruginosa [5] | MIC (μg/mL) P. mirabilis [6] | MIC [10] | MIC (μg/mL) E. cloacae [11]
25 µg/mL: MIC (μg/mL) A. hydrophila [4] | MIC (μg/mL) K. pneumonia [7] | MIC (μg/mL) P. vulgaris [9]
50 µg/mL: MIC (μg/mL) S. marcescens [1] | MIC (μg/mL) M. catarrhalis [8]

PRT82 (CDCYPTGSLSRVCDPEDGQCPCKPGVIGRQCDRCDNPFAEVTTNGCEV; listed as Homo sapiens)
50 µg/mL: MIC (μg/mL) C. diversus [2] | MIC (μg/mL) K. pneumonia [7]
12.5 µg/mL: MIC (μg/mL) S. marcescens [1] | MIC (μg/mL) E. coli BL21 [3] | MIC (μg/mL) A. hydrophila [4] | MIC (μg/mL) P. mirabilis [6] | MIC (μg/mL) P. vulgaris [9]
100 µg/mL: MIC (μg/mL) M. catarrhalis [8]
25 µg/mL: MIC (μg/mL) P. aeruginosa [5] | MIC [10] | MIC (μg/mL) E. cloacae [11]

PRT83 (DDNVCLREPCENYMKCVSVLRFDSSAPFLASASTLFRPIQPIAGLRCRCPPGFTGDFCE; listed as Homo sapiens)
25 µg/mL: MIC (μg/mL) C. diversus [2] | MIC (μg/mL) P. aeruginosa [5] | MIC (μg/mL) E. cloacae [11]
12.5 µg/mL: MIC (μg/mL) S. marcescens [1] | MIC (μg/mL) E. coli BL21 [3] | MIC (μg/mL) A. hydrophila [4] | MIC (μg/mL) P. mirabilis [6] | MIC (μg/mL) K. pneumonia [7] | MIC (μg/mL) M. catarrhalis [8] | MIC (μg/mL) P. vulgaris [9] | MIC [10]

PRT84 (EAGRCVPGVCRNGGTCTDAPNGGFRCQCPAGGAFEGPRCE; listed as Homo sapiens)
12.5 µg/mL: MIC (μg/mL) S. marcescens [1] | MIC (μg/mL) C. diversus [2] | MIC (μg/mL) P. aeruginosa [5] | MIC (μg/mL) P. mirabilis [6] | MIC [10] | MIC (μg/mL) E. cloacae [11]
25 µg/mL: MIC (μg/mL) E. coli BL21 [3] | MIC (μg/mL) A. hydrophila [4] | MIC (μg/mL) K. pneumonia [7] | MIC (μg/mL) M. catarrhalis [8] | MIC (μg/mL) P. vulgaris [9]

PRT85 (KLHFCDSGPCKNSGFCSERWGSFSCDCPVGFGGKDCQ; listed as Homo sapiens)
50 µg/mL: MIC (μg/mL) S. marcescens [1] | MIC (μg/mL) P. mirabilis [6] | MIC (μg/mL) M. catarrhalis [8]
25 µg/mL: MIC (μg/mL) C. diversus [2] | MIC (μg/mL) E. cloacae [11]
12.5 µg/mL: MIC (μg/mL) E. coli BL21 [3] | MIC (μg/mL) A. hydrophila [4] | MIC (μg/mL) P. aeruginosa [5] | MIC (μg/mL) K. pneumonia [7] | MIC (μg/mL) P. vulgaris [9] | MIC [10]
